Results reported in publication PMC12386606, “Evaluation of the In Vitro Blood–Brain Barrier Transport of Ferula persica L. Bioactive Compounds” (International Journal of Molecular Sciences, 2025).

Experiment: not given
Settings: oil/water partition coefficient; Table 1; ref PubChem; cited from earlier work

SMILES	log p
O=C(O)[C@]1(O)C[C@@H](O)[C@@H](O)[C@H](O)C1 [Quinic acid]	−2.4
COc1cc2ccc(=O)oc2c(O)c1OC [Fraxidin]	1.5
C=CC(C)(O)CC/C=C(\C)CCC=C(C)C (stereo not drawn) [(E)-nerolidol]	4.6
C/C1=C\CC/C(C)=C/CC(C)(C)/C=C/C1 [α-humulene]	4.5
COc1cc([C@H]2OC[C@H]3[C@@H]2CO[C@@H]3c2cc(OC)c(O[C@@H]3O[C@H](CO)[C@@H](O)[C@H](O)[C@H]3O)c(OC)c2)cc(OC)c1O [Syringaresinol glucoside]	−1.4
C=CCc1cc(OC)c(OC)c(OC)c1 [Elemicin]	2.5
CC(=O)O[C@@H]1[C@@H](OC(C)=O)[C@@H](O)[C@H](Oc2c(-c3ccc(O)cc3)oc3cc(O)cc(O)c3c2=O)O[C@H]1C [Kaempferol 3-O-(3″,4″-di-O-acetyl-a-L-rhamnopyranoside)]	−0.9
C=C(C)C(O)CCC(C)C1CCC2(C)C3CCC4C(C)(C)C(O)CCC45CC35CCC12C (stereo not drawn) [9,19-cyclolanost-25-ene-3,24-diol]	8.6
O=c1c(OC2OC(CO)C(O)C(O)C2O)c(-c2ccc(O)c(O)c2)oc2cc(O)cc(O)c12 (stereo not drawn) [Isoquercetrin]	−0.2
C[C@@H]1CC[C@H]2C(C(=O)O)=C[C@@H]3[C@@H](O)C(C)(C)C[C@@]132 [Pentalenic acid]	2.7
CC1CCCC2(C)CCC(C(C)(C)O)C=C12 (stereo not drawn) [Rosifoliol]	3.9
O=c1ccc2cc(O)c(O)cc2o1 [6,7-dihydroxycoumarin]	1.2
CC(=O)OC[C@H]1O[C@@H](Oc2cc(O)c3c(=O)c(-c4ccc(O)cc4)coc3c2)[C@H](O)[C@@H](O)[C@@H]1O [6″-O-acetylgenistin]	0.9
CCOC(=O)/C=C/c1ccc(O)c(O)c1 [Ethyl caffeate]	2.6
CC12CCC3C(CC3(C)C)C(C)(CCC1=O)O2 (stereo not drawn) [3,7-epoxycaryophyllan-6-One]	2.8
Cc1ncsc1CCO [4-methyl-5-thiazoleethanol]	0.8

Experiment: Parallel artificial membrane permeability assay for the blood–brain barrier (PAMPA-BBB)
Settings: compound within AerExt donor solution; 37 °C, 4 h, PBS pH 7.4; n.q. = not quantified in the acceptor plate

SMILES	AerExt log Pe
COc1cc2ccc(=O)oc2c(O)c1OC [Fraxidin]	−4.82
C=CC(C)(O)CC/C=C(\C)CCC=C(C)C (stereo not drawn) [(E)-nerolidol]	n.q.
C/C1=C\CC/C(C)=C/CC(C)(C)/C=C/C1 [α-humulene]	n.q.
COc1cc([C@H]2OC[C@H]3[C@@H]2CO[C@@H]3c2cc(OC)c(O[C@@H]3O[C@H](CO)[C@@H](O)[C@H](O)[C@H]3O)c(OC)c2)cc(OC)c1O [Syringaresinol glucoside]	n.q.
CC(=O)O[C@@H]1[C@@H](OC(C)=O)[C@@H](O)[C@H](Oc2c(-c3ccc(O)cc3)oc3cc(O)cc(O)c3c2=O)O[C@H]1C [Kaempferol 3-O-(3″,4″-di-O-acetyl-a-L-rhamnopyranoside)]	n.q.
C=C(C)C(O)CCC(C)C1CCC2(C)C3CCC4C(C)(C)C(O)CCC45CC35CCC12C (stereo not drawn) [9,19-cyclolanost-25-ene-3,24-diol]	−5.60
O=c1c(OC2OC(CO)C(O)C(O)C2O)c(-c2ccc(O)c(O)c2)oc2cc(O)cc(O)c12 (stereo not drawn) [Isoquercetrin]	n.q.
CC1CCCC2(C)CCC(C(C)(C)O)C=C12 (stereo not drawn) [Rosifoliol]	n.q.
CC(=O)OC[C@H]1O[C@@H](Oc2cc(O)c3c(=O)c(-c4ccc(O)cc4)coc3c2)[C@H](O)[C@@H](O)[C@@H]1O [6″-O-acetylgenistin]	n.q.

Same assay, conditions: compound within AerExt; PAMPA-BBB

SMILES	AerExt Cross BBB Potential
O=C(O)[C@]1(O)C[C@@H](O)[C@@H](O)[C@H](O)C1 [Quinic acid]	+ (log Pe < −6.5)
C=C(C)C(O)CCC(C)C1CCC2(C)C3CCC4C(C)(C)C(O)CCC45CC35CCC12C (stereo not drawn) [9,19-cyclolanost-25-ene-3,24-diol]	+ (log Pe < −6.5)
O=c1c(OC2OC(CO)C(O)C(O)C2O)c(-c2ccc(O)c(O)c2)oc2cc(O)cc(O)c12 (stereo not drawn) [Isoquercetrin]	–

Same assay, conditions: compound within RootExt donor solution; 37 °C, 4 h, PBS pH 7.4; n.q. = not quantified in the acceptor plate

SMILES	RootExt log Pe
COc1cc2ccc(=O)oc2c(O)c1OC [Fraxidin]	−4.81
C=CC(C)(O)CC/C=C(\C)CCC=C(C)C (stereo not drawn) [(E)-nerolidol]	n.q.
C/C1=C\CC/C(C)=C/CC(C)(C)/C=C/C1 [α-humulene]	n.q.
COc1cc([C@H]2OC[C@H]3[C@@H]2CO[C@@H]3c2cc(OC)c(O[C@@H]3O[C@H](CO)[C@@H](O)[C@H](O)[C@H]3O)c(OC)c2)cc(OC)c1O [Syringaresinol glucoside]	n.q.
C=C(C)C(O)CCC(C)C1CCC2(C)C3CCC4C(C)(C)C(O)CCC45CC35CCC12C (stereo not drawn) [9,19-cyclolanost-25-ene-3,24-diol]	−5.79
O=c1c(OC2OC(CO)C(O)C(O)C2O)c(-c2ccc(O)c(O)c2)oc2cc(O)cc(O)c12 (stereo not drawn) [Isoquercetrin]	n.q.
CC1CCCC2(C)CCC(C(C)(C)O)C=C12 (stereo not drawn) [Rosifoliol]	n.q.
O=c1ccc2cc(O)c(O)cc2o1 [6,7-dihydroxycoumarin]	n.q.

Same assay, conditions: compound within RootExt; PAMPA-BBB

SMILES	RootExt Cross BBB Potential
C=C(C)C(O)CCC(C)C1CCC2(C)C3CCC4C(C)(C)C(O)CCC45CC35CCC12C (stereo not drawn) [9,19-cyclolanost-25-ene-3,24-diol]	+ (log Pe < −6.5)
O=c1c(OC2OC(CO)C(O)C(O)C2O)c(-c2ccc(O)c(O)c2)oc2cc(O)cc(O)c12 (stereo not drawn) [Isoquercetrin]	–
O=c1ccc2cc(O)c(O)cc2o1 [6,7-dihydroxycoumarin]	–
